Among the test systems are EKVX NSCLC; KM12 colon; OVCAR-5 ovarian; CCRF-CEM leukemia; SW-620 colon; OVCAR-4 ovarian; NCI-H522 lung; MDA-MB-231 breast; SF-295 CNS; IGROV1 ovarian; SF-268 CNS; MOLT-4 leukemia; K-562 leukemia.
Holding throughout (assay): growth of human tumour cells (NCI), 48 h

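All cell lines were grown in 96-well plates and treated with compound for 48 hours. TGI: concentration producing complete growth inhibition.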

`O=P1(Oc2ccccc2)N(CCCl)CCN1c1ccccc1` (stereo not drawn): the TGI in the experiment on EKVX NSCLC, in the experiment on KM12 colon, with OVCAR-5 ovarian, in the experiment with CCRF-CEM leukemia, with SW-620 colon and in the experiment with OVCAR-4 ovarian was > 100 µM each time. Further, the TGI in the experiment with NCI-H522 lung, with MDA-MB-231 breast, with SF-295 CNS, with IGROV1 ovarian, in the experiment with SF-268 CNS and in the experiment with MOLT-4 leukemia was > 100 µM each time. Also, in the experiment with K-562 leukemia, the TGI was > 100 µM.
For the compound `Cc1ccc(Nc2c(C#N)[n+]([O-])c3cc(Cl)ccc3[n+]2[O-])cc1`, the TGI with EKVX NSCLC, in the experiment on KM12 colon, in the experiment with OVCAR-5 ovarian, in the experiment on CCRF-CEM leukemia, with SW-620 colon and with OVCAR-4 ovarian was > 100 µM in each case. In addition, the TGI in the experiment on NCI-H522 lung is > 74.8 µM; in the experiment on MDA-MB-231 breast, > 100 µM; with SF-295 CNS it was > 100 µM; in the experiment on IGROV1 ovarian, > 100 µM; in the experiment with SF-268 CNS, > 100 µM; in the experiment on MOLT-4 leukemia, > 100 µM. For the same compound, in the experiment on K-562 leukemia, the TGI was > 100 µM.
For the compound `CCCCCCCCCCCCCCCCOCC(Cl)COP(=O)(O)OP(=O)(O)OCC1OC(n2cc(C)c(=O)[nH]c2=O)CC1O` (stereo not drawn), the TGI with EKVX NSCLC, in the experiment on KM12 colon, with OVCAR-5 ovarian, with CCRF-CEM leukemia, in the experiment with SW-620 colon and in the experiment on OVCAR-4 ovarian was > 100 µM each time. The TGI in the experiment with NCI-H522 lung, in the experiment with MDA-MB-231 breast, with SF-295 CNS, with IGROV1 ovarian, with SF-268 CNS and in the experiment with MOLT-4 leukemia was > 100 µM each time. Also, the TGI in the experiment with K-562 leukemia was > 100 µM.
As to `c1cc2c(c(NC3=NCCO3)c1)CCC2`, the TGI in the experiment on EKVX NSCLC, with KM12 colon, with OVCAR-5 ovarian, in the experiment on CCRF-CEM leukemia, with SW-620 colon and in the experiment on OVCAR-4 ovarian was > 100 µM each time. Besides, the TGI in the experiment with NCI-H522 lung, with MDA-MB-231 breast, in the experiment with SF-295 CNS, with IGROV1 ovarian, in the experiment on SF-268 CNS and with MOLT-4 leukemia was > 100 µM throughout. Moreover, the TGI in the experiment with K-562 leukemia is > 100 µM.
For the compound `O=C(CSc1nc2[nH]ncc2c(=O)[nH]1)c1ccc(Cl)cc1`, the TGI in the experiment with EKVX NSCLC, in the experiment with KM12 colon, in the experiment with OVCAR-5 ovarian, in the experiment on CCRF-CEM leukemia, in the experiment on SW-620 colon and with OVCAR-4 ovarian was > 100 µM in each case. Besides, the TGI with NCI-H522 lung, with MDA-MB-231 breast, in the experiment on SF-295 CNS, in the experiment on IGROV1 ovarian, in the experiment with SF-268 CNS and with MOLT-4 leukemia was > 100 µM each time. The TGI in the experiment with K-562 leukemia is > 100 µM.
`CCCCCCOc1ccc(C(=O)NO)cc1`: the TGI in the experiment with EKVX NSCLC is 52.7 µM; in the experiment with KM12 colon it was 27.6 µM; with OVCAR-5 ovarian it was 40.4 µM; with CCRF-CEM leukemia it was 5.27 µM; in the experiment with SW-620 colon it was 35.8 µM; in the experiment on OVCAR-4 ovarian, > 66.3 µM. Further, the TGI in the experiment on NCI-H522 lung was found to be 19.7 µM; in the experiment on MDA-MB-231 breast, 21.9 µM; in the experiment on SF-295 CNS, 40.9 µM; in the experiment on IGROV1 ovarian, 23.2 µM; with SF-268 CNS it was 28.7 µM; in the experiment on MOLT-4 leukemia, 18.7 µM. The compound also returned a TGI in the experiment on K-562 leukemia of 57.7 µM.
For `Cc1nc(N/N=C/c2ccccc2Cl)[nH]c(=O)c1CCO`, the TGI with EKVX NSCLC, in the experiment on KM12 colon, with OVCAR-5 ovarian, in the experiment on CCRF-CEM leukemia, with SW-620 colon and with OVCAR-4 ovarian was > 100 µM throughout. The TGI in the experiment with NCI-H522 lung was 34.4 µM; with MDA-MB-231 breast, > 100 µM; in the experiment with SF-295 CNS, 96 µM; with IGROV1 ovarian it was > 100 µM; in the experiment with SF-268 CNS, > 100 µM; in the experiment with MOLT-4 leukemia it was > 100 µM. Further, in the experiment on K-562 leukemia, the TGI was > 100 µM.
Regarding `C=C(C)[C@@]1(OC(=O)c2cc([N+](=O)[O-])cc([N+](=O)[O-])c2)C[C@@H]2CCCC[C@@H]21`, the TGI with EKVX NSCLC, with KM12 colon, in the experiment with OVCAR-5 ovarian, with CCRF-CEM leukemia, in the experiment on SW-620 colon and with OVCAR-4 ovarian was > 100 µM in each case. In addition, the TGI with NCI-H522 lung, in the experiment on MDA-MB-231 breast, in the experiment on SF-295 CNS, in the experiment on IGROV1 ovarian, with SF-268 CNS and in the experiment on MOLT-4 leukemia was > 100 µM throughout. The TGI in the experiment on K-562 leukemia was > 100 µM.
For `COC(=O)c1c(O)ccc2c1c1c(n2Cc2ccc(Cl)cc2Cl)C(=O)c2ccccc2C1=O`, the TGI came to 24.5 µM in the experiment on EKVX NSCLC; 15.9 µM in the experiment on KM12 colon; 42.9 µM in the experiment with OVCAR-5 ovarian; 29.9 µM in the experiment on CCRF-CEM leukemia; 32.4 µM with SW-620 colon; 11.6 µM in the experiment on OVCAR-4 ovarian. Moreover, the TGI with NCI-H522 lung amounted to 22 µM; in the experiment with MDA-MB-231 breast, 23.5 µM; in the experiment on SF-295 CNS it was 31.5 µM; with IGROV1 ovarian, 26.9 µM; in the experiment with SF-268 CNS, 24.6 µM; in the experiment with MOLT-4 leukemia, 7.17 µM. Also, in the experiment on K-562 leukemia, the TGI amounted to 22.5 µM.
In the case of `CCC[C@H](NS(=O)c1ccc(C)cc1)C(C(=O)OCC)=C(c1ccccc1)c1ccccc1` (stereo partly drawn), the TGI in the experiment with EKVX NSCLC is 38.6 µM; in the experiment on KM12 colon, 37.8 µM; in the experiment on OVCAR-5 ovarian it was 43.4 µM; in the experiment with CCRF-CEM leukemia it was > 100 µM; with SW-620 colon, > 100 µM; with OVCAR-4 ovarian, 49 µM. Also, the TGI is 55.1 µM in the experiment on NCI-H522 lung; > 100 µM in the experiment with MDA-MB-231 breast; 40 µM with SF-295 CNS; 75.8 µM in the experiment with IGROV1 ovarian; > 100 µM with SF-268 CNS; > 100 µM in the experiment with MOLT-4 leukemia. For the same compound, in the experiment with K-562 leukemia, the TGI was > 100 µM.
In the case of `CCCCC(Sc1cc(Cl)c(C)cc1S(=O)(=O)Nc1n[nH]c(N)n1)C(=O)OC` (stereo not drawn), the TGI in the experiment with EKVX NSCLC, in the experiment with KM12 colon, in the experiment with OVCAR-5 ovarian, with CCRF-CEM leukemia, with SW-620 colon and in the experiment on OVCAR-4 ovarian was > 10 µM in each case. For the same compound, the TGI in the experiment on NCI-H522 lung, with MDA-MB-231 breast, with SF-295 CNS, with IGROV1 ovarian, in the experiment with SF-268 CNS and in the experiment on MOLT-4 leukemia was > 10 µM throughout. Also, the TGI in the experiment on K-562 leukemia was > 10 µM.

(Values after PubChem BioAssay (NCI).)
